In PubChem BioAssay AID248 (DTP/NCI, 2004):
Inconclusive results and toxic doses are left out. No stated cut-off is given here; in the data, active means T/C of 150% or more; inactive means T/C below 125%.

Tested on: L1210 leukemia ip in BDF1 mice, survival T/C
Assay: NCI In Vivo Anticancer Drug Screen. Data for tumor model L1210 Leukemia (intraperitoneal) in B6D2F1 (BDF1) mice
Details: endpoint: mean survival time, higher = longer survival
Procedure, shortened: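 Transplantable tumor model; survival measured in treated vs vehicle control mice. Value = treated/control.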

[1] = dose: 100.0 mg/kg/injection, schedule: Q01DX009 (ip), vehicle: saline
[2] = dose: 100.0 mg/kg/injection, schedule: Q04DX003 (ip), vehicle: saline
[3] = dose: 200.0 mg/kg/injection, schedule: Q01DX009 (ip), vehicle: saline
[4] = dose: 200.0 mg/kg/injection, schedule: Q04DX003 (ip), vehicle: saline
[5] = dose: 100.0 mg/kg/injection, schedule: Q04DX003 (ip), vehicle: saline with Tween-80
[6] = dose: 200.0 mg/kg/injection, schedule: Q04DX003 (ip), vehicle: saline with Tween-80
[7] = dose: 100.0 mg/kg/injection, schedule: Q04DX003 (ip), vehicle: other
[8] = dose: 200.0 mg/kg/injection, schedule: Q04DX003 (ip), vehicle: other
[9] = dose: 100.0 mg/kg/injection, schedule: Q04DX003 (ip), vehicle: Klucel (hydroxypropylcellulose) (HPC)
[10] = dose: 200.0 mg/kg/injection, schedule: Q04DX003 (ip), vehicle: Klucel (hydroxypropylcellulose) (HPC)
[11] = dose: 400.0 mg/kg/injection, schedule: Q04DX003 (ip), vehicle: Klucel (hydroxypropylcellulose) (HPC)
[12] = dose: 100.0 mg/kg/injection, schedule: Q01DX001 (ip), vehicle: saline
[13] = dose: 200.0 mg/kg/injection, schedule: Q01DX001 (ip), vehicle: saline
[14] = dose: 400.0 mg/kg/injection, schedule: Q01DX001 (ip), vehicle: saline
[15] = dose: 100.0 mg/kg/injection, schedule: Q01DX009 (ip), vehicle: Klucel (hydroxypropylcellulose) (HPC)
[16] = dose: 200.0 mg/kg/injection, schedule: Q01DX009 (ip), vehicle: Klucel (hydroxypropylcellulose) (HPC)
[17] = dose: 400.0 mg/kg/injection, schedule: Q01DX009 (ip), vehicle: Klucel (hydroxypropylcellulose) (HPC)

Measured: T/C

COC(Cl)C(Cl)(Cl)Cl (stereo not given)
inactive: dose: 50.0 mg/kg/injection, schedule: Q01DX009 (ip), vehicle: saline 93 % of control | dose: 100.0 mg/kg/injection, schedule: Q01DX001 (ip), vehicle: acetone 103 % of control | [1] 88 % of control | [2] 103 % of control | dose: 200.0 mg/kg/injection, schedule: Q01DX001 (ip), vehicle: acetone 90 % of control | [3] 91 % of control | [4] 100 % of control | dose: 400.0 mg/kg/injection, schedule: Q01DX001 (ip), vehicle: acetone 92 % of control

CC(C)(C)c1ccc(O)c(C(C)(C)C)c1
inactive: dose: 50.0 mg/kg/injection, schedule: Q01DX009 (ip), vehicle: saline with Tween-80 100 % of control | dose: 100.0 mg/kg/injection, schedule: Q01DX009 (ip), vehicle: saline with Tween-80 96 % of control | [5] 91 % of control | dose: 200.0 mg/kg/injection, schedule: Q01DX009 (ip), vehicle: saline with Tween-80 97 % of control | [6] 95 % of control

CCN(CC)S(=O)(=O)c1cccc(C(O)CC(O)(C(F)(F)F)C(F)(F)F)c1 (stereo not given)
inactive: [7] 102 % of control | [8] 100 % of control | dose: 400.0 mg/kg/injection, schedule: Q04DX003 (ip), vehicle: other 96 % of control

O=C1c2cccc3c2C2(C45c6c7cccc6C(=O)c6cccc(c64)C(=O)c4cccc(c45)C7=O)c4c1cccc4C(=O)c1cccc(c12)C3=O
inactive: [1] 103 % of control | [5] 94 % of control | [3] 95 % of control | [6] 107 % of control | dose: 400.0 mg/kg/injection, schedule: Q01DX009 (ip), vehicle: saline 95 % of control | dose: 400.0 mg/kg/injection, schedule: Q04DX003 (ip), vehicle: saline with Tween-80 94 % of control

CCSc1ncc(C(N)=O)c(N)n1
inactive: [9] 97 % of control | [10] 100 % of control | [11] 92 % of control

CCCCCCCCCCCCCCCCN(C)C(=S)c1ccc(OC)cc1
inactive: [9] 101 % of control | [10] 101 % of control | [11] 94 % of control

CN1CCc2ccccc2C1Cc1cc(OCc2ccccc2)ccc1N (stereo not given)
inactive: dose: 10.0 mg/kg/injection, schedule: Q01DX001 (ip), vehicle: carboxymethylcellulose (CMC) 89 % of control | dose: 20.0 mg/kg/injection, schedule: Q01DX001 (ip), vehicle: carboxymethylcellulose (CMC) 95 % of control | dose: 40.0 mg/kg/injection, schedule: Q01DX001 (ip), vehicle: carboxymethylcellulose (CMC) 93 % of control | dose: 80.0 mg/kg/injection, schedule: Q01DX001 (ip), vehicle: carboxymethylcellulose (CMC) 98 % of control

S=P(NNc1ccccc1)(NNc1ccccc1)c1ccc(Cl)cc1
inactive: dose: 100.0 mg/kg/injection, schedule: Q04DX002 (ip), vehicle: gum acacia 89 % of control | dose: 200.0 mg/kg/injection, schedule: Q04DX002 (ip), vehicle: gum acacia 89 % of control | dose: 400.0 mg/kg/injection, schedule: Q04DX002 (ip), vehicle: gum acacia 92 % of control

C[C@]12CC[C@H]3[C@@H](CCC4=CC(=O)CC[C@@]43C(=O)F)[C@@H]1CC[C@@H]2O
inactive: dose: 100.0 mg/kg/injection, schedule: Q01DX001 (sc), vehicle: steriod suspending solution 97 % of control | dose: 200.0 mg/kg/injection, schedule: Q01DX001 (sc), vehicle: steriod suspending solution 100 % of control | dose: 400.0 mg/kg/injection, schedule: Q01DX001 (sc), vehicle: steriod suspending solution 97 % of control

O=C(Nc1ccc(S(=O)(=O)F)c(Cl)c1)Oc1ccccc1
inactive: [12] 96 % of control | [13] 96 % of control | [14] 96 % of control

CCC1CCCC1=O (stereo not given)
inactive: dose: 50.0 mg/kg/injection, schedule: Q01DX001 (ip), vehicle: saline 95 % of control | [13] 90 % of control

O=C(NCCN1C(=O)C2C3CCC(O3)C2C1=O)Nc1ccc([N+](=O)[O-])cc1[N+](=O)[O-] (stereo not given)
inactive: dose: 100.0 mg/kg/injection, schedule: Q04DX002 (ip), vehicle: Klucel (hydroxypropylcellulose) (HPC) 108 % of control | dose: 200.0 mg/kg/injection, schedule: Q04DX002 (ip), vehicle: Klucel (hydroxypropylcellulose) (HPC) 101 % of control | dose: 400.0 mg/kg/injection, schedule: Q04DX002 (ip), vehicle: Klucel (hydroxypropylcellulose) (HPC) 108 % of control

C1=C2CN3CCC45c6ccccc6N6CCC(OC1)C(C2CC34)C65 (stereo not given)
inactive: dose: 1.25 mg/kg/injection, schedule: Q01DX001 (ip), vehicle: other 105 % of control

c1ccc2c(c1)Oc1ccccc1[Te]2
inactive: dose: 100.0 mg/kg/injection, schedule: Q04DX002 (ip), vehicle: saline with Tween-80 100 % of control | dose: 200.0 mg/kg/injection, schedule: Q04DX002 (ip), vehicle: saline with Tween-80 103 % of control | dose: 400.0 mg/kg/injection, schedule: Q04DX002 (ip), vehicle: saline with Tween-80 88 % of control

CN(C)c1ccc(C=O)c([N+](=O)[O-])c1
inactive: [15] 97 % of control | [16] 101 % of control | [17] 105 % of control

OC(Cc1ccccc1)(c1ccccc1)c1cccc2ccccc12 (stereo not given)
inactive: [15] 90 % of control | [9] 100 % of control | [16] 95 % of control | [10] 109 % of control | [17] 92 % of control | [11] 97 % of control

CC(=O)[O][Hg][CH]1CCC2OC1CC[CH]2[Hg][O]C(C)=O (stereo not given)
inactive: dose: 12.5 mg/kg/injection, schedule: Q01DX009 (ip), vehicle: Klucel (hydroxypropylcellulose) (HPC) 97 % of control | dose: 25.0 mg/kg/injection, schedule: Q01DX009 (ip), vehicle: Klucel (hydroxypropylcellulose) (HPC) 94 % of control | dose: 25.0 mg/kg/injection, schedule: Q04DX003 (ip), vehicle: Klucel (hydroxypropylcellulose) (HPC) 91 % of control | dose: 50.0 mg/kg/injection, schedule: Q01DX009 (ip), vehicle: Klucel (hydroxypropylcellulose) (HPC) 96 % of control | dose: 50.0 mg/kg/injection, schedule: Q04DX003 (ip), vehicle: Klucel (hydroxypropylcellulose) (HPC) 98 % of control

FC(F)(F)C(F)(F)c1nc2nc(Cl)c(Cl)nc2[nH]1
inactive: dose: 50.0 mg/kg/injection, schedule: Q01DX009 (ip), vehicle: other 106 % of control | dose: 100.0 mg/kg/injection, schedule: Q01DX009 (ip), vehicle: other 92 % of control | [7] 120 % of control | dose: 132.0 mg/kg/injection, schedule: Q04DX003 (ip), vehicle: other 94 % of control | [8] 114 % of control

O=S(=O)(CC(Cl)c1ccccc1)c1ccc(Br)cc1 (stereo not given)
inactive: [12] 94 % of control | [2] 94 % of control | [13] 92 % of control | [4] 96 % of control | [14] 92 % of control | dose: 400.0 mg/kg/injection, schedule: Q04DX003 (ip), vehicle: saline 94 % of control
